Assay results published in article PMC6934975, “Natural Alpha-Glucosidase Inhibitors Rapid Fishing from Cyperus Rotundus Using Immobilized Enzyme Affinity Screening Combined with UHPLC-QTOF MS” (Iranian Journal of Pharmaceutical Research : IJPR, 2019).
Like-named read-outs stand apart in the source and are kept apart here.

What was measured:
[1] = target: T1, α-Glucosidase (E.C. 3.2.1.20) from Saccharomyces cerevisiae (Saccharomyces cerevisiae, UniProt P53341); assay: Kinetic analysis of AGH inhibition (Lineweaver-Burk plot); assay type: biochemical
T1 construct: purchased Sigma-Aldrich
T1 sequence (P53341 whole entry): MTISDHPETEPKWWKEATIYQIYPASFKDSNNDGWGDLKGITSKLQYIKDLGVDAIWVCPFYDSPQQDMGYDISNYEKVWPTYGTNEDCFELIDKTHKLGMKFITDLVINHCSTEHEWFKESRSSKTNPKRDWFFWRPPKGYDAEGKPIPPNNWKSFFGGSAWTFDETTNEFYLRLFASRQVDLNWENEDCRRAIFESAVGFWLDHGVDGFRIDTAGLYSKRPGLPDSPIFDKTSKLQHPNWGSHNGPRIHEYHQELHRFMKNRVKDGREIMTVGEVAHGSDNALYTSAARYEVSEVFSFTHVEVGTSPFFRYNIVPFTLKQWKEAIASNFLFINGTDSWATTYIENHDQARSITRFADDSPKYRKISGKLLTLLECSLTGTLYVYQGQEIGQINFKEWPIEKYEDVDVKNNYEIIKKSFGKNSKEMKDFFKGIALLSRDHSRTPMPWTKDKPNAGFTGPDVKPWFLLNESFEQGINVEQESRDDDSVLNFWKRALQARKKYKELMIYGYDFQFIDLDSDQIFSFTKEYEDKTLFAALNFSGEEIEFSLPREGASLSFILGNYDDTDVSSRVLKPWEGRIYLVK
Description: (§1) where AS, ASB, AC and ACB are the absorbance of sample, sample blank, control and control blank, respectively. The measurement was performed in triplicates. For kinetic analysis of AGH inhibition, a certain concentration of 0.6 U/mL AGH and different contents of sample compounds were incubated with a series of concentrations of substrate. The inhibitory kinetics of the investigated compounds was analyzed using the Lineweaver-Burk plot, double-reciprocal plot of the substrate concentration and velocity.

[2] = target: T1, α-Glucosidase (E.C. 3.2.1.20) from Saccharomyces cerevisiae; assay: α-Glucosidase inhibitory activity assay in vitro (PNPG substrate, absorbance at 405 nm); assay type: biochemical
Excerpt: Agilent 1290 Infinity LC-6520 Accurate-Mass QTOF-MS (Agilent Technologies, PaloAlto, CA, USA); Bruker DRX-400 (400MHz for ^1H and 100MHz for ^13C) spectrometer (Bruker, Rheinstetten, Germany); α-Glucosidase (E.C. 3.2.1.20) from Saccharomyces cerevisiae, p-nitrophenyl a-D-glucopyranoside (PNPG) and glutathione (GSH) were purchased from Sigma-Aldrich (St Louis, MO, USA). CNBr-activated Sepharose^TM 4B was purchased from Phamacia Biotech AB (Uppsala, Sweden). Distilled water was purified by a Milli-Q water purification apparatus (Millipore, Bedford, MA). All other reagents were of analytical grade.
Each of the dried ground powder (3 g) was extracted in 30 mL of 80% aqueous methanol by ultrasonic extraction for 60 min at room temperature. After centrifugation at 5000 rpm for 5 min, the combined extract was evaporated under reduced pressure to dryness. To each herb extract, DMSO was added to get 5 mg/mL solution, respectively.
The α-glucosidase inhibitory activity was determined spectrophotometrically on 96-well microplate reader. In brief, to a total of 310 μL of reaction mixture containing 265 μL of 67 mM phosphate buffer (pH 6.8), 10 μL of 3 mM glutathione, 25 μL of 10 mM p-nitrophenyl-α-D-glucopyranoside and 10 μL of investigated compounds in the wells was added 10 μL of 0.3 U/mL α-glucosidase and mixed. All the reagents used in this assay were dissolved in the same phosphate buffer (67 mM, pH 6.8). After incubation for 10 min at 37 °C, the reaction was stopped by adding […] of 0.1 M Na2CO3 solution. Then the absorbance of sample (AS) at 405 nm was recorded (SunriseTM microplate absorbance reader, Tecan, Austria). The control was the same mixture except for the investigated sample replaced by the phosphate buffer. The sample blank and control blank were the same mixtures as sample and control, respectively, except α-glucosidase was instead with phosphate buffer, respectively.
The α-glucosidase inhibition activity (%) of test sample could be calculated as
Inhibition activity (%) = […]
as §1

[3] = target: T2, immobilized α-glucosidase (Saccharomyces cerevisiae, UniProt P53341); assay: AGH inhibitors screening by immobilized AGH affinity fishing with UHPLC-QTOF-MS; assay type: binding; settings: C. rotundus extract; parallel control with blank sepharose supports
T2 construct: purchased Sigma-Aldrich
T2 sequence (P53341 whole entry): as above
Description: a-Glucosidase (0.20 mg) was dissolved in coupling buffer (0.1 M NaHCO3 and 0.5 M NaCl at pH 8.3) at a concentration of 2.0 mg protein/mL. The protein solution was mixed with CNBr-activated Sepharose^TM 4B gel at room temperature in a ratio of […] protein solution to 5 mg Sepharose^TM powder, which would swell to about […] of wet gel. The gel slurry was rotated at room temperature for 1 h to ensure the enzyme bound to the beads. After protein coupling, the resident reactive sites on the gel were blocked by reacting with 0.01 M Tris-HCl buffer at pH 8.0 for 1 h at room temperature. […] Control supports were prepared in the same manner but with no AGH being added during the immobilization step.
200 mg ground C. rotundus powder was extracted in 20 mL of 80% aqueous methanol by ultrasonic extraction for 30 min. The extract was filtered and freeze-dried, then redissolved in 10 mL affinity buffer (67 mM KH2PO4 (containing 5% methanol) at pH 6.8) and filtered through a 0.45 μm membrane as the tested extract sample.
C. rotundus extracts (400 mL) was mixed with […] immobilized AGH gel and gently stirred at 37 °C for 20 min. After incubation with the extracts, the gel were washed with 400 mL affinity buffer (67 mM KH2PO4 (containing 5% methanol) at pH 6.8) four times to remove any unbound components and then treated with […] desorbed solution (50% methanol aqueous solution at pH 3.3) to release the captured potential inhibitors of AGH. The released components were collected and concentrated to 10 mL under N2 atmosphere at 40 °C, then applied to UPLC-QTOF-MS for peak identification. Elution from the control supports was collected and analyzed in the same manner.
UHPLC-MS was performed on an Agilent 1290 Infinity LC-6520 Accurate-Mass QTOF-MS (Agilent Corporation, CA, USA). Analytes eluted from the AGH coupling supports and control supports were separated on a poroshell 120 EC-C18 column (3.0 × 50 mm, 2.7 µm , Agilent Corporation, MA, USA). The solvent system consisted of solvent A […] and solvent B (0.5% formic acid in water, v/v). The solvent A content of the mobile phase was gradient increased from 5% to 100% linearly in 20 min.
The flow rate was set at 0.4 mL/min. Mass analysis was performed in negative ESI ion mode. The operating parameters were as follows: drying gas (N2) flow rate, 8 L/min; drying gas temperature, 325 °C; nebulizer, 30 psig; capillary, 3500 V; skimmer, 65 V; fragmentor voltage, 100 V. The mass range was set at m/z 100–2000. The system was operated under Agilent MassHunter workstation acquisition software, version B.02.01 (Agilent Corporation, MA, USA).
The extract of C. rotundus was used as the real biological sample to carry out the affinity screening procedure, just as shown in Scheme 1. Firstly, α-glucosidase was immobilized on CNBr-activated sepharose beads, while blank supports were set as control. Secondly, immobilized α-glucosidase was incubated with 300 µL of C.
rotundus extracts to launch the affinity capture procedure. The highly-affinity components in C. rotundus could be specifically captured by the enzyme and fished out from the complex matrix. Thirdly, to characterize the captured compounds, the binders were released from immobilized α-glucosidase and subsequently separated and analyzed by UHPLC-QTOF MS. It was worth mentioning that not all the molecules retained on immobilized enzyme were of highly-affinity. Some of them might be non-specifically absorbed on the blank sepharose support. To eliminate this false positive, a parallel control was carried out throughout the whole screening procedure. By subtracting the signal of false positive, the highly-affinity ingredients could be recognized correctly, and these ingredients might be potent natural AGHI in C. rotundus.

α-glucosidase = system: α-glucosidase; parameters: method as in PMID 24044731; settings: cited from earlier work

Row | Structure (SMILES) | alpha-glucosidase inhibitory kinetic mode ([1]; Lineweaver-Burk plots) | IC50 [2] [µM] | α-glucosidase inhibitory activity in words [2] | Ki [1] [µM] | Affinity capture result on immobilized α-glucosidase after subtracting the blank support signal [3] | IC50 ([2]; Table 2, read-out: alpha-glucosidase inhibitory IC50) [µM] | Ki ([1]; Lineweaver-Burk plots, Table 2, read-out: alpha-glucosidase inhibitory Ki) [µM] | α-glucosidase inhibitors in C. rotundus (reported) (α-glucosidase)
1 | C[C@H]1O[C@H](O[C@H]2[C@H](O)[C@@H](O)[C@@H](O[C@H]3[C@H](O)[C@@H](O)C(O)O[C@@H]3CO)O[C@@H]2CO)[C@H](O)[C@@H](O)[C@@H]1N[C@H]1C=C(CO)[C@@H](O)[C@H](O)[C@H]1O (stereo partly drawn) [Acarbose (reference), Acarbose, reference compound] | competitive |  |  |  |  |  |  | 
2 | Oc1ccc(/C=C/c2c3c(cc4c2[C@H](c2cc(O)cc(O)c2)[C@@H](c2ccc(O)c(O)c2)O4)O[C@H](c2ccc(O)c(O)c2)[C@H]3c2cc(O)cc(O)c2)cc1 [Cyperusphenol A (1), (E)-cyperusphenol A] | Noncompetitive | 1.43 ± 0.11 | potent natural AGHIs | 11.2 | highly-affinity binders |  |  | 
3 | Oc1cc2c3c(c1)C1c4c(cc(O)cc4C4c5c(cc(O)cc5C3C(c3ccc(O)c(O)c3)O2)OC4c2ccc(O)c(O)c2)OC1c1ccc(O)c(O)c1 (stereo not drawn) [Cyperusphenol D (3), Cyperusphenol D] | Noncompetitive | 1.18 ± 0.11 | potent natural AGHIs | 8.63 | highly-affinity binders |  |  | 
4 | Oc1ccc(/C=C/c2c3c(cc4c2[C@@H](c2cc(O)cc(O)c2)[C@H](c2ccc(O)c(O)c2)O4)O[C@H](c2ccc(O)c(O)c2)[C@H]3c2cc(O)cc(O)c2)cc1 [Mesocyperusphenol A (2), mesocyperusphenol A] | Noncompetitive | 1.44 ± 0.17 | potent natural AGHIs | 10.7 | highly-affinity binders |  |  | 
5 | Oc1ccc(/C=C/c2cc(O)cc3c2C(c2cc(O)cc(O)c2)C(c2ccc(O)c(O)c2)O3)cc1 (stereo not drawn) [Scirpusins A (5), Scirpusins A] | Noncompetitive |  |  |  | highly-affinity binders | 21.4 ± 1.4 | 136 | natural α-glucosidase inhibitors
6 | Oc1cc(O)cc(C2c3c(/C=C/c4ccc(O)c(O)c4)cc(O)cc3OC2c2ccc(O)c(O)c2)c1 (stereo not drawn) [Scirpusins B (4), Scirpusins B] | Noncompetitive | 13.3 ± 1.66 |  | 95.4 | highly-affinity binders |  |  | natural α-glucosidase inhibitors
7 | CC1=C2C(O)C3CC(O)C(C)C2(CC1O)C3(C)C (stereo not drawn) [sugetriol] |  |  |  |  | absorbed only on the support matrix |  |  | 
